Measured values from patent US10155754B2, “Substituted 2-imino-1,3-thiazolidin-4-ones as N-arachidonoylethanolamine cellular uptake inhibitors” (UNIVERSITAT BERN, priority 2014, dated 2018).

What was measured:
[1] = tested on: AEA cellular uptake (U937 cells); assay: [3H]-AEA cellular uptake inhibition in U937 cells; format: cell-based; conditions: Homo sapiens, U-937, U937 cells, final 100 nM AEA with 0.5 nM [3H]-AEA, 15 min at 37° C.; read-out: AEA uptake IC50
Method in brief: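 U937 cells (0.5×10^6 per sample) pre-incubated with compound (100 pM–100 μM, triplicates) for 15 min at 37 °C, then given 100 nM AEA including 0.5 nM [3H]-AEA for 15 min. Filtration, washing and scintillation counting of cell-associated radioactivity; IC50 by four-parameter nonlinear regression.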

FAAH = target: T1, FAAH (Homo sapiens, UniProt O00519); assay: FAAH activity: hydrolysis of [3H]-AEA in U937 cell homogenates; format: biochemical; conditions: [3H]-AEA hydrolysis, final 100 nM AEA, read-out: FAAH inhibition IC50
T1 construct: endogenous in cells; host or cells: U937 cell homogenate
T1 sequence (O00519 1-579): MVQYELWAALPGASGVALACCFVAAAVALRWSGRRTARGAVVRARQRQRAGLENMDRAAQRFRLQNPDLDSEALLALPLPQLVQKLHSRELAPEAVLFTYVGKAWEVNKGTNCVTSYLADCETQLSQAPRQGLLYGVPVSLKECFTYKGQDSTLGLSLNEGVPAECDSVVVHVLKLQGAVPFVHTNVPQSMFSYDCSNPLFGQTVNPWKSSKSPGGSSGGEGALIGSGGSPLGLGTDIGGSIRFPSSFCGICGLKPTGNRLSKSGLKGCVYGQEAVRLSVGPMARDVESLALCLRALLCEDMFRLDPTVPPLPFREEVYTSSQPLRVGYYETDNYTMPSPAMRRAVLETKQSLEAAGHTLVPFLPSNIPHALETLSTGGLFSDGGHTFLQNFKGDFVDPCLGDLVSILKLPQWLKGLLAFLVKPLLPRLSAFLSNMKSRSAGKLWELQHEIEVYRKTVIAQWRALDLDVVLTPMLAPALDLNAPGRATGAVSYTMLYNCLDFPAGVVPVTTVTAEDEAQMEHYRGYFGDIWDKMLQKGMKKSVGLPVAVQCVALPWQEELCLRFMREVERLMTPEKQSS
Description: Hydrolysis of [^3H]-AEA by FAAH was determined as previously described in cell homogenates of U937 cells (0.18 mg protein) (Omeir et al., 1999, Biochem Biophys Res Commun, 264, 316-20; Mor et al., 2004, J Med Chem, 47, 4998-5008). Protein amounts of cell homogenates corresponded to 0.5×10^6 cells (U937), to assure best possible comparability of IC50 values as used for the AEA cellular uptake assays. URB597 was used as positive control. Protein quantification was performed using a BCA assay (Thermo Scientific). Enzyme activity was assessed by addition of vehicle or compounds in 10 μL DMSO to 490 μL homogenate in 10 mM Tris HCl, 1 mM EDTA, 0.1% (w/v) BSA fatty acid free, pH=8 and incubation for 15 min at 37° C. After, a mixture of AEA plus [ethanolamine-1-^3H]-AEA (0.5 nM) at final 100 nM was added to the homogenates and incubated for 15 min at 37° C. The reaction was stopped by addition of 1 mL ice-cold CHCl3:MeOH (1:1) followed by vigorous vortexing. Phase separation was achieved by centrifugation at 10'000×g at 4° C. for 10 min. Radioactivity of the separated aqueous phase (upper phase) containing [^3H-ethanolamine] or [^3H-glycerol] was measured by liquid scintillation counting on a Tri-Carb 2100 TR liquid scintillation analyzer after addition of 3.5 mL Ultima Gold scintillation cocktail (PerkinElmer Life Sciences). Results are expressed as hydrolysis of tritium substrate in percent of vehicle treated control. IC50 values were calculated by GraphPad®. Data are reported as means of n=3 independent experiments performed in triplicates.

SMILES | IC50 [1] [nM] | IC50 (FAAH) [µM]
O=C1/C(=C/c2ccc3c(c2)OCCO3)S/C(=N\c2ccc(F)cc2)N1C1CCCCC1 [24_B_I, (2Z,5Z)-2-(4-fluorophenylimino)-3-cyclohexyl-5-((2,3-dihydrobenzo[b][1,4]dioxin-6-yl)methylene)thiazolidin-4-one] | 141 | > 100
Cc1ccc(/N=C2\S/C(=C\c3ccc4[nH]cnc4c3)C(=O)N2c2ccccc2)cc1 [04_A_N, (2Z,5Z)-5-((1H-benzo[d]imidazol-5-yl)methylene)-2-(p-tolylimino)-3-phenylthiazolidin-4-one] | 107 | > 100
COc1ccc(N2C(=O)/C(=C/c3ccc4[nH]cnc4c3)S/C2=N\Cc2ccccc2)cc1 [04_C_F, (2Z,5Z)-5-((1H-benzo[d]imidazol-5-yl)methylene)-2-(benzylimino)-3-(4-methoxyphenyl)thiazolidin-4-one] | 484 | > 10
O=C1/C(=C/c2ccc(CO)cc2)S/C(=N\CCCc2ccccc2)N1c1ccccc1 [22_K_N, (2Z,5Z)-2-(3-phenylpropylimino)-5-(4-(hydroxymethyl)benzylidene)-3-phenylthiazolidin-4-one] | 97 | 6.61
O=C1/C(=C/c2ccc3c(c2)OCCO3)S/C(=N\c2ccccc2)N1c1ccc(F)cc1 [24_N_B, (2Z,5Z)-3-(4-fluorophenyl)-5-((2,3-dihydrobenzo[b][1,4]dioxin-6-yl)methylene)-2-(phenylimino)thiazolidin-4-one] | 667 | > 100
CC(C)CN1C(=O)/C(=C/c2ccc3[nH]ccc3c2)S/C1=N\c1ccc(F)cc1 [03_B_X, (2Z,5Z)-5-((1H-indol-5-yl)methylene)-2-(4-fluorophenylimino)-3-isobutylthiazolidin-4-one] | 479 | > 100
O=C1/C(=C/c2ccc3c(c2)OCCO3)S/C(=N\c2ccc(F)cc2)N1c1ccc(F)cc1 [24_B_B, (2Z,5Z)-2-(4-fluorophenylimino)-3-(4-fluorophenyl)-5-((2,3-dihydrobenzo[b][1,4]dioxin-6-yl)methylene)thiazolidin-4-one] | 170 | > 100
Cc1ccc(/N=C2\S/C(=C\c3ccc4[nH]cnc4c3)C(=O)N2CC(C)C)cc1 [04_A_X, (2Z,5Z)-5-((1H-benzo[d]imidazol-5-yl)methylene)-2-(p-tolylimino)-3-isobutylthiazolidin-4-one] | 155 | 14.5
O=C1/C(=C/c2ccc3[nH]ccc3c2)S/C(=N\Cc2ccccc2Cl)N1c1ccccc1 [03_T_N, (2Z,5Z)-5-((1H-indol-5-yl)methylene)-2-(2-chlorobenzylimino)-3-phenylthiazolidin-4-one] | 262 | > 100
COc1ccc(/N=C2\S/C(=C\c3ccc4[nH]cnc4c3)C(=O)N2c2ccccc2)cc1 [04_F_N, (2Z,5Z)-5-((1H-benzo[d]imidazol-5-yl)methylene)-2-(4-methoxyphenylimino)-3-phenylthiazolidin-4-one] | 164 | > 100
COc1ccc(/N=C2\S/C(=C\c3ccc4c(c3)OCCO4)C(=O)N2c2ccccc2)cc1 [24_F_N, (2Z,5Z)-2-(4-methoxyphenylimino)-5-((2,3-dihydrobenzo[b][1,4]dioxin-6-yl)methylene)-3-phenylthiazolidin-4-one] | 939 | > 100
CC(C)CN1C(=O)/C(=C/c2ccc(CO)cc2)S/C1=N\c1ccc(F)cc1 [22_B_X, (2Z,5Z)-5-(4-(hydroxymethyl)benzylidene)-2-(4-fluorophenylimino)-3-isobutylthiazolidin-4-one] | 127 | 19.1
Cc1ccc(/N=C2\S/C(=C\c3ccc4c(c3)OCCO4)C(=O)N2C2CCCCC2)cc1 [24_A_I, (2Z,5Z)-3-cyclohexyl-5-(2,3-dihydro-1,4-benzodioxin-6-ylmethylene)-2-(p-tolylimino)thiazolidin-4-one] | 301 | > 100
O=C1/C(=C/c2ccccc2)S/C(=N\Cc2ccccc2)N1c1ccccc1 [23_C_N, (2Z,5Z)-5-benzylidene-2-(benzylimino)-3-phenylthiazolidin-4-one] | 180 | > 10
Cc1ccc(/N=C2\S/C(=C\c3ccc4[nH]ccc4c3)C(=O)N2c2ccc(C)cc2)cc1 [03_A_A, (2Z,5Z)-5-((1H-indol-5-yl)methylene)-2-(p-tolylimino)-3-p-tolylthiazolidin-4-one] | 315 | > 100

The remaining lines, values ahead:

IC50 [1] [nM] | IC50 (FAAH) [µM] | SMILES
137 | 0.427 | COc1ccc(C/N=C2\S/C(=C\c3ccc4c(c3)OCCO4)C(=O)N2CC(C)C)cc1 [24_Q_X, (2Z,5Z)-2-(4-methoxybenzylimino)-5-((2,3-dihydrobenzo[b][1,4]dioxin-6-yl)methylene)-3-isobutylthiazolidin-4-one]
327 | > 100 | Cc1ccc(/N=C2\S/C(=C\c3ccc4ncsc4c3)C(=O)N2CC(C)C)cc1 [32_A_X, (2Z,5Z)-2-(p-tolylimino)-5-((benzo[d]thiazol-6-yl)methylene)-3-isobutylthiazolidin-4-one]
164 | > 100 | COc1ccc(C/N=C2\S/C(=C\c3ccc4c(c3)OCCO4)C(=O)N2c2ccc(C)cc2)cc1 [24_Q_A, (2Z,5Z)-2-(4-methoxybenzylimino)-5-((2,3-dihydrobenzo[b][1,4]dioxin-6-yl)methylene)-3-p-tolylthiazolidin-4-one]
194 | > 100 | O=C1/C(=C/c2ccc3[nH]cnc3c2)S/C(=N\c2ccccc2)N1c1ccccc1 [compound 04, (2Z,5Z)-5-((1H-benzo[d]imidazol-5-yl)methylene)-3-phenyl-2-(phenylimino)thiazolidin-4-one]
291 | > 100 | O=C1/C(=C/c2ccc3ncsc3c2)S/C(=N\c2ccccc2)N1c1ccccc1 [compound 32, (2Z,5Z)-5-((benzo[d]thiazol-6-yl)methylene)-3-phenyl-2-(phenylimino)thiazolidin-4-one]
1040 | 11.2 | O=C1/C(=C/c2ccc3c(c2)OCCO3)S/C(=N\Cc2ccc(F)cc2)N1c1ccc(F)cc1 [24_P_B, (2Z,5Z)-2-(4-fluorobenzylimino)-3-(4-fluorophenyl)-5-((2,3-dihydrobenzo[b][1,4]dioxin-6-yl)methylene)thiazolidin-4-one]
176 | 1.51 | Cc1ccc(N2C(=O)/C(=C/c3ccc4c(c3)OCCO4)S/C2=N\Cc2ccc(F)cc2)cc1 [24_P_A, (2Z,5Z)-2-(4-fluorobenzylimino)-5-((2,3-dihydrobenzo[b][1,4]dioxin-6-yl)methylene)-3-p-tolylthiazolidin-4-one]
389 | > 100 | Cc1ccc(/N=C2\S/C(=C\c3ccc4c(cnn4C)c3)C(=O)N2C2CCCCC2)cc1 [28_A_I, (2Z,5Z)-2-(p-tolylimino)-3-cyclohexyl-5-((1-methyl-1H-indazol-5-yl)methylene)thiazolidin-4-one]
462 | > 100 | O=C1/C(=C/c2ccc3c(c2)OCCO3)S/C(=N\c2ccccc2)N1C1CCCCC1 [24_N_I, (2Z,5Z)-3-cyclohexyl-5-((2,3-dihydrobenzo[b][1,4]dioxin-6-yl)methylene)-2-(phenylimino)thiazolidin-4-one]
817 | > 100 | O=C1/C(=C/c2ccc3c(c2)OCCO3)S/C(=N\c2ccccc2)N1c1ccccc1 [compound 24, (2Z,5Z)-5-((2,3-dihydrobenzo[b][1,4]dioxin-6-yl)methylene)-3-phenyl-2-(phenylimino)thiazolidin-4-one]
87 | 0.17 | O=C1/C(=C/c2ccc3c(c2)OCCO3)S/C(=N\Cc2ccc(F)cc2)N1C1CCCCC1 [24_P_I, (2Z,5Z)-2-(4-fluorobenzylimino)-3-cyclohexyl-5-((2,3-dihydrobenzo[b][1,4]dioxin-6-yl)methylene)thiazolidin-4-one]
